Measurements: EP0079675A1, “Oxazolidinedione derivatives” (PFIZER INC., priority 1981, dated 1983)

Legend:
[1] = target: T1, aldose reductase enzyme obtained from calf lens (Bos taurus, UniProt P16116); assay: inhibition of aldose reductase enzyme activity (procedure of S. Hayman et al., modified by K. Sestanj et al.); assay type: biochemical; conditions: partially purified calf lens aldose reductase, read-out: Percent Inhibition (%); for inhibition at 10 µM: 10^-5M; for inhibition at 1 µM: 10^-6M; for inhibition at 0.1 µM: 10^-7M
T1 construct: partially purified aldose reductase enzyme obtained from calf lens; from tissue; host or cells: calf lens
Experimental: (§1) The activity of the compounds of the present invention, as agents for the control of chronic diabetic complications, is determined by their ability to successfully pass one or more of the following standard biological or pharmacological tests, viz., (1) measuring their ability to inhibit the enzyme activity of isolated aldose reductase; (2) measuring their ability to reduce or inhibit sorbitol accumulation in the sciatic nerve of acutely streptozotocinized (i.e., diabetic) rats; (3) measuring their ability to reverse already-elevated sorbitol levels in the sciatic nerve and lens of chronic streptozotocin-induced diabetic rats; (4) measuring their ability to prevent or inhibit galactitol formation in the lens of acutely galactosemic rats, and (5) measuring their ability to delay cataract formation and reduce the severity of lens opacities in chronic galactosemic rats.
The following s^piro-oxindole oxazolidinedione final products of Examples 1-4, respectively, were tested for their ability to reduce or inhibit aldose reductase enzyme activity via the procedure of S. Hayman et al., as described in the Journal of Biological Chemistry, Vol 240, p.. 877 (1965) and as modified by K. Sestanj et al. in U.S. Patent No. 3,821,383. In every case, the substrate employed was partially purified aldose reductase enzyme obtained from calf lens.

[2] = system: sorbitol levels in diabetic rats; assay: inhibition of sorbitol formation/accumulation in diabetic rats; assay type: in vivo; conditions: oral route, dose levels ranging from 0.5 mg./kg. to 20 mg./kg.
Source text: As previously indicated, the spiro-oxindole oxazolidinedione compounds of this invention are readily adapted to therapeutic use as aldose reductase inhibitors for the control of chronic diabetic com^pli- cations, in view of their ability to reduce lens sorbitol levels in diabetic subjects to a statistically significant degree. […] Furthermore, the herein described compounds of this invention can be administered by either the oral or parenteral routes of administration. […]
as §1

O=C1NC(=O)C2(O1)C(=O)N(c1ccc(F)cc1)c1ccc(F)cc12 (centres unmarked) [Product of Example 1, 1-(p-fluorophenyl)-5-fluoro-spiro-[indoline-3,5-oxazolidine]-2,2',4'-trione]
inhibition at 10 µM [1]: 87% | inhibition at 1 µM [1]: 65% | inhibition at 0.1 µM [1]: 25%

CC(C)N1C(=O)C2(OC(=O)NC2=O)c2cc(Cl)ccc21 (centres unmarked) [Product of Example 2, 1-isopropyl-5-chloro-s^piro-[indoline-3,5'-oxazolidine]-2,2',4'-trione]
inhibition at 10 µM [1]: 80% | inhibition at 1 µM [1]: 45% | inhibition at 0.1 µM [1]: 17%

CN1C(=O)C2(OC(=O)NC2=O)c2cc(Cl)ccc21 (centres unmarked) [Product of Example 3]
inhibition at 10 µM [1]: 67% | inhibition at 1 µM [1]: 31% | inhibition at 0.1 µM [1]: 10%

O=C1NC(=O)C2(O1)C(=O)N(Cc1ccc(Cl)cc1)c1ccc(Cl)cc12 (centres unmarked) [Product of Example 4, 1-(p-chlorobenzyl)-5-chloro-spiro-(indoline-3,5'-oxazolidine]-2,2',4'-trione]
inhibit the formation of sorbitol levels [2]: to a significantly high degree | inhibition at 100 µM ([1]; 10^-4M): 100% | inhibition at 10 µM [1]: 89% | inhibition at 1 µM [1]: 81% | inhibition at 0.1 µM [1]: 60%
